Values quoted from earlier work in article PMC4474859 (PLoS ONE, 2015).

How the values were obtained:
Impα/Impβ complex = details: full length protein vs NLS peptide
From the text: (§1) Affinity assays between NLS peptides and Impα proteins have been performed based in indirect affinity measurements, using Surface Plasmon Resonance (SPR), and ITC [19, 38, 55]. Indirect affinity measurements between NLSs and Impα proteins reported dissociation constants in the nM range and permitted the comparison among these molecules. SPR experiments was only able to estimate the peptide-protein affinity in the μM range which was lately confirmed by ITC experiments.

MmImpα = details: in words
From the text: as §1

Substance | increase in affinity compared to just nucleoplasmin NLS peptide (Impα/Impβ complex) [fold] | binding site on MmImpα (MmImpα)
full length nucleoplasmin protein: full length nucleoplasmin protein binds to Impα/Impβ complex | 2 | –
GSIIRKWN [hPLSCR4 NLS peptide] | – | binds only the minor site of MmImpα
